Experimental data: ChEMBL document CHEMBL4311970 (Eur J Med Chem, 2019)
The source made the active and inactive calls. The rule behind the calls is not given here.

Legend:
[1] = biological target: T1, M-phase inducer phosphatase 2 (Homo sapiens, UniProt P30305); assay: Inhibition of recombinant human Cdc25B using OMFP as substrate preincubated for 5 to 8 mins and measured every 5 mins 60 mins by fluorescence based assay
T1 sequence (P30305 whole entry): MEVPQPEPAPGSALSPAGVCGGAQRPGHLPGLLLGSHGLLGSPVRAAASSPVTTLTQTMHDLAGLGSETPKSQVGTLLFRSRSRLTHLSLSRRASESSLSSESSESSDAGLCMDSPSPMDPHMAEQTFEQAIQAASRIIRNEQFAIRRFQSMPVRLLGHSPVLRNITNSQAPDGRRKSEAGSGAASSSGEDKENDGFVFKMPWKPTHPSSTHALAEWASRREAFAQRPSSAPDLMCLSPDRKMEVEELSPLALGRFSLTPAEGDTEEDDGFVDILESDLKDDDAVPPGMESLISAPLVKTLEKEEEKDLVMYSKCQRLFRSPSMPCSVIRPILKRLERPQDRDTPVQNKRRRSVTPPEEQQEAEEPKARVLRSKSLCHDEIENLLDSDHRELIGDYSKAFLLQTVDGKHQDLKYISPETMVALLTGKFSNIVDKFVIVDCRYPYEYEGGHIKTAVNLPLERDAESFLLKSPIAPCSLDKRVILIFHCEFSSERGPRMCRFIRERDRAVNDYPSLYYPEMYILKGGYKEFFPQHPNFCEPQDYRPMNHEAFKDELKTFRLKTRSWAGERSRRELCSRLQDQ

[2] = tested on: MDA-MB-231; assay: Antiproliferative activity against human MDA-MB-231 cells assessed as reduction in cell viability incubated for 72 hrs by SRB assay; assay type: functional, cell-based; settings: MDA-MB-231, 72 h
[3] = biological target: T2, M-phase inducer phosphatase 2 (Homo sapiens) (UniProt P30305); assay: Inhibition of recombinant human Cdc25B at 10 uM using OMFP as substrate preincubated for 5 to 8 mins and measured every 5 mins 60 mins by fluorescence based assay
T2 sequence (whole entry): T1 sequence (P30305 whole entry)

[4] = tested on: MCF7; assay: Antiproliferative activity against human MCF7 cells assessed as reduction in cell viability incubated for 72 hrs by SRB assay; assay type: functional, cell-based; settings: MCF7, 72 h
[5] = biological target: T3, M-phase inducer phosphatase 1 (Homo sapiens) (UniProt P30304); assay: Inhibition of recombinant human Cdc25A at 10 uM using OMFP as substrate preincubated for 5 to 8 mins and measured every 5 mins 60 mins by fluorescence based assay relative to control
T3 sequence (whole entry): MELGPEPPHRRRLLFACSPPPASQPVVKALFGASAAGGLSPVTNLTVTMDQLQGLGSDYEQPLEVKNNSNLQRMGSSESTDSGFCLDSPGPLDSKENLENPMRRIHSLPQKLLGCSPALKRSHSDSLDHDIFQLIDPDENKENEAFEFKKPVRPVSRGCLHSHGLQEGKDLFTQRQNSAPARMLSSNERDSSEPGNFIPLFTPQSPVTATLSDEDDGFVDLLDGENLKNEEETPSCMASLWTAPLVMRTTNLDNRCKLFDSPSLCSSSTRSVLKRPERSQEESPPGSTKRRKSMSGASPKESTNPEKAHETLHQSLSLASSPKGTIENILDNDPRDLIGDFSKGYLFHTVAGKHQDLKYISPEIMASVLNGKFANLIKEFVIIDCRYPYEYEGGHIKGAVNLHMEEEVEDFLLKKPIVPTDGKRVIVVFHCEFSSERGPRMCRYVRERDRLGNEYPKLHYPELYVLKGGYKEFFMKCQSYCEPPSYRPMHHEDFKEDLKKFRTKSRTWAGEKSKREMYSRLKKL

[6] = species: Homo sapiens; assay: Selectivity index, ratio of IC50 for recombinant human Cdc25A to IC50 for recombinant human Cdc25C
[7] = tested on: KB; assay: Antiproliferative activity against human KB cells assessed as reduction in cell viability incubated for 72 hrs by SRB assay; assay type: functional, cell-based
[8] = biological target: T4, M-phase inducer phosphatase 3 (Homo sapiens, UniProt P30307); assay: Inhibition of recombinant human Cdc25C using OMFP as substrate preincubated for 5 to 8 mins and measured every 5 mins 60 mins by fluorescence based assay
T4 sequence (P30307 whole entry): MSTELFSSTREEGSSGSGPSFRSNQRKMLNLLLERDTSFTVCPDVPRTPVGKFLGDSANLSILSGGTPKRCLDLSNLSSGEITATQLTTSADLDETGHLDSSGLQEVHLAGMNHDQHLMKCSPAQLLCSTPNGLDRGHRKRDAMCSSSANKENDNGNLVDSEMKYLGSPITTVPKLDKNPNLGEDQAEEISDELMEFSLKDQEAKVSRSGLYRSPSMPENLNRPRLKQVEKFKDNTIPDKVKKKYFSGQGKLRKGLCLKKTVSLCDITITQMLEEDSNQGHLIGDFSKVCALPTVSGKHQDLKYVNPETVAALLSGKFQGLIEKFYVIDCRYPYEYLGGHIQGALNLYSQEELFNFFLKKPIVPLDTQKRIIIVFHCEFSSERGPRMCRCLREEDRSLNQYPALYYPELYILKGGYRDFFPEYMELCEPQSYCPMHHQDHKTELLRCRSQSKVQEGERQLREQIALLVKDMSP

[9] = tested on: A549; assay: Antiproliferative activity against human A549 cells assessed as reduction in cell viability incubated for 72 hrs by SRB assay; assay type: functional, cell-based; settings: A549, 72 h
[10] = biological target: T5, M-phase inducer phosphatase 3 (Homo sapiens) (UniProt P30307); assay: Inhibition of recombinant human Cdc25C at 10 uM using OMFP as substrate preincubated for 5 to 8 mins and measured every 5 mins 60 mins by fluorescence based assay
T5 sequence (whole entry): T4 sequence (P30307 whole entry)

[11] = biological target: T5, M-phase inducer phosphatase 3 (Homo sapiens); assay: Potency index, ratio of IC50 of NSC663284 to IC50 of compound for inhibition of recombinant human Cdc25C using OMFP as substrate preincubated for 5 to 8 mins and measured every 5 mins 60 mins by fluorescence based assay
[12] = Cytotoxicity against human NHBE cells assessed as reduction in cell viability incubated for 72 hrs by SRB assay; assay type: cell-based
[13] = biological target: T6, M-phase inducer phosphatase 1 (Homo sapiens, UniProt P30304); assay: Inhibition of recombinant human Cdc25A using OMFP as substrate preincubated for 5 to 8 mins and measured every 5 mins 60 mins by fluorescence based assay
T6 sequence (P30304 whole entry): T3 sequence (whole entry)

[14] = species: Homo sapiens; assay: Selectivity index, ratio of IC50 for recombinant human Cdc25B to IC50 for recombinant human Cdc25C
[15] = Antiproliferative activity against human KBVIN cells assessed as reduction in cell viability incubated for 72 hrs by SRB assay; assay type: functional, cell-based

IC50 [1] | IC50 [2] | inhibition [3] | IC50 [4] | inhibition [5] | Ratio IC50 [6] | IC50 [7] | IC50 [8] | IC50 [9] | inhibition [10] | Ratio IC50 [11] | IC50 [13] | Ratio IC50 [14] | Structure (SMILES) | IC50 [12] | IC50 [15]
2.79 µM | 4.86 µM | Active | 4.7 µM | 57.2% |  | 5.13 µM | 0.42 µM | 4.5 µM | Active |  | 1.2 µM |  | N#Cc1ccccc1Cn1cc(CNC2=C(Cl)C(=O)c3cccnc3C2=O)nn1 | 2.18 µM | 9.02 µM
1 µM | 4.9 µM | Active | 4.84 µM | 69.1% |  | 5.01 µM | 0.21 µM | 4.92 µM | Active |  | 0.54 µM |  | N#Cc1cccc(Cn2cc(CNC3=C(Cl)C(=O)c4cccnc4C3=O)nn2)c1 | 6.43 µM | 11.6 µM

Continued, compound first:

Structure (SMILES) | IC50 [1] | IC50 [2] | inhibition [3] | IC50 [4] | inhibition [5] | Ratio IC50 [6] | IC50 [7] | IC50 [8] | IC50 [9] | inhibition [10] | Ratio IC50 [11] | IC50 [13] | Ratio IC50 [14] | IC50 [12] | IC50 [15]
Cc1ccc(Cn2cc(CNC3=C(Cl)C(=O)c4cccnc4C3=O)nn2)cc1 | 1.39 µM | 4.63 µM | Active | 4.71 µM | 74.4% | 6 | 5.05 µM | 0.09 µM | 3.92 µM | Active | 9 | 0.53 µM | 15 | 6 µM | 6.81 µM
O=C1C(Cl)=C(NCCN2CCOCC2)C(=O)c2ncccc21 |  | 4.97 µM | Active | 1 µM | 48.4% |  | 4.89 µM |  | 2.76 µM | Active |  |  |  | 3.31 µM | 4.87 µM
CC(=O)O[C@H]1C(=O)[C@@]2(C)[C@H]([C@H](OC(=O)c3ccccc3)[C@]3(O)C[C@H](OC(=O)[C@H](O)[C@@H](NC(=O)c4ccccc4)c4ccccc4)C(C)=C1C3(C)C)[C@]1(OC(C)=O)CO[C@@H]1C[C@@H]2O [PACLITAXEL] |  |  |  |  |  |  |  |  | 0.00752 µM |  |  |  |  | 36.5 µM | 3.15 µM
